{"source": "patent US20150299648A1", "about": "“IMPROVED CULTIVATION MEDIA AND PROCESS FOR IMPROVED PROTEIN PRODUCTION BY PICHIA STRAINS” (priority 2012, published 2015)", "key": {"[1]": {"test_system": "P. pastoris YGLY21058 strain producing glycosylated insulin precursor (GIP)", "test": "Screening of sugars and sugar alcohols as osmoprotectants in fed-batch cultivation", "format": "cell-based, Pichia pastoris", "experimental": "The P. pastoris YGLY21058 strain was cultivated in 1 L glass bioreactors (DASGIP, Germany). For fermentation in 1 L bioreactor, a vial (1 mL) of RCB (Research Cell Bank) was inoculated into 200 mL of Seed medium in 1 L-baffled flask. The culture incubated at 24° C., while shaking on an orbital shaker at 180 rpm for 48±4 h. The bioreactor was inoculated with a 10% volumetric ratio of seed to initial BSGY medium. Cultivation conditions were following: temperature set at 24±0.5° C., pH controlled at 6.5±0.1 with 30% ammonium hydroxide, dissolved oxygen was maintained at 20% of saturation by cascading agitation rate on the addition of pure oxygen to the fixed airflow rate of 0.7 vvm. After depletion of the initial glycerol (4%), a 50% glycerol solution containing 12.5 mL/L of PTM1 salts (6.5 g FeSO4.7H2O, 2.0 g ZnCl2, 0.6 g CuSO4.5H2O, 3.0 g MnSO4.7H2O, 0.5 g CoCl2.6H2O, 0.2 g NaMoO4.2H2O, 0.2 g biotin, 80 mg NaI, 20 mg H3BO4 per L) was fed constantly at an initial rate of 0.08 h^−1 for 8 h. Induction was initiated after a 30 min starvation phase when methanol was fed. Methanol was fed constantly starting at 1.33 g/L/h under methanol limited condition. Agitation speed was changed from cascade mode with agitation speed and pure oxygen.\nFor comparisons, each sugar or sugar alcohol was added at 50 g/L in initial batch medium of BSGY. In case of control without sugar supplementation (BSGY medium only), glycosylated insulin precursor (GIP) was detectable at 58 h of induction, but not detected at 80 h of induction due to most likely proteolytic degradation caused by heavy cell lysis (Lanes 1 and 2 of FIG. 2 A)."}, "[2]": {"test_system": "P. pastoris strain (YGLY27893) which produces an antibody Fc-fragment", "test": "Effect of maltitol with or without sorbitol on cell robustness", "format": "cell-based, Pichia pastoris", "settings": "BSGY medium with maltitol 50 g/L", "experimental": "Using a P. pastoris strain (YGLY27893) which produces an antibody Fc-fragment, the osmoprotective effect of combining sorbitol and maltitol was tested as follows: sorbitol(−) maltitol(−); sorbito(+) maltitol(−); […] maltito(+). The concentrations of sorbitol and maltitol were 18 g/L and 50 g/L respectivetly. (Note: Sorbitol(+) maltito(−) is identical to BSGY medium).\nThe cell growth was expressed as [Cell (t)]/[Cell (0)]×100(%), here, [Cell (t)] is the wet cell weight at t (h) of induction and [Cell (0)] is the wet cell weight at 0 (h) of induction, because the cell density at the beginning of induction in each case was different due to absence or presence of sorbitol as a fermentable sugar. The cell was heavily lysed around 80 h of induction in BSGY medium without maltitol, whereas the cell was continuously grown for 150 h of induction in BSGY medium with maltitol (FIG. 4). I re-draw the FIG. 4 as shown in the last page (p 47 after FIG. 5)."}}}
{"molecule": "OC[C@@H](O)[C@@H](O[C@H]1O[C@H](CO)[C@@H](O)[C@H](O)[C@H]1O)[C@H](O)[C@@H](O)CO", "note": "[Maltitol, 4-O-α-glucopyranosyl-D-sorbitol]", "values": [{"measurement": "Intact insulin precursor produced", "setting": "[1]; 2% maltitol, 83 h of post-induction", "value": "intact protein was produced"}, {"measurement": "Index of cell lysis (double stranded DNA released into culture medium)", "setting": "[1]; 50 g/L in initial batch BSGY, 80 h of induction", "value": "< 1", "unit": "mg DNA/L"}, {"measurement": "Intact GIP molecule after 80 h-induction (SDS-PAGE)", "setting": "[1]; 50 g/L in initial batch medium of BSGY", "value": "intact GIP molecule was maintained"}, {"measurement": "Intact GIP produced", "setting": "[1]; 80 h of induction", "value": 100, "unit": "mg/L"}, {"measurement": "Robustness of Pichia production strains", "setting": "[1]; methanol induction phase of cultivation", "value": "significantly improved the robustness"}, {"measurement": "Volumetric productivity of GIP/insulin relative to control", "setting": "[1]; vs control without supplementation", "value": 2, "unit": "fold"}, {"measurement": "Time of continuous cell growth in induction", "setting": "[2]", "value": 150, "unit": "h"}]}
